# Measured values taken from patent EP0538469A1, “SULFONANILIDE DERIVATIVE AND MEDICINE” (NIPPON SHINYAKU COMPANY, LIMITED, priority 1990, dated 1991).
# Like-named read-outs stand apart in the source and are kept apart here. Marks after values point to notes of the source that are not given here.
# Key:
# male rabbits [1] = assay: Action to intra urethral pressure and blood pressure, administration to duodenum; format: in vivo
# Protocol: (§1) The experiment was conducted using male rabbits of body weight of 1.4-3.1 kg under fasted condition. The animals were fixed at backs under uretrane(1.2g/kg s.c.) anesthesia, abdomen was subjected to a midline incision and bladder was exposed. In order to prevent the urine stored in the bladder on the intra urethral pressure, the urine in the bladder was compulsorily discharged out of the body. After that, a catheter was inserted into both ureters and the urine discharged from kidney was introduced outside.
# (§2) The intra urethral pressure(IUP) at the urethra tract of about 0.5-1 cm distance from the neck of the bladder was measured using a microtip transducer transducer equipped with a baloon (filled with physiological saline solution) at the top end. Further, polyethylene tube was inserted into femoral artery to measure the blood pressure (BP).
# Abdomen right above stomach was subjected to a midline incision and, after that, the drug to be tested suspended in 0.5% methyl cellulose (0.5% MC) was administered at the dose of 0.5ml/kg to the duodenum. […] The above administration to duodenum corresponded to oral administration as the administration into digestive organ in anethetized animals.
# [2] = Acute toxicity, oral, rats; format: in vivo; conditions: rat, in vivo, SD rats, read-out: Rats LD₅₀
# Protocol: (§3) Numbers of mice (ddY-strain, male, 6-8 weeks age) and rats (SD strain, male, 6-7 weeks age) in each group were 4 and 6, respectively.
# (§4) The drug to be tested was orally administered at the dose of 10 ml/kg using an oral probe to the animals which were fasted since one day before (for 16-18 hours). After giving the drug, the animals were returned to the state where both feed and water were available and the general symptom and the dead cases, if any, were checked for two weeks. The drug was suspended in physiological saline solution containing 0.5% of methylcellulose (0.5% MC) and the suspension was given to the animals by oral route.
# rats (SD strain, male) = assay: Acute toxicity, oral, rats; format: in vivo; conditions: observed two weeks
# Protocol: as §3, §4
# smooth muscle of urethra = assay: Contraction of isolated smooth muscle of urethra (Magnus vessel, cumulative concentration/response curves); format: cell-based, rabbits; conditions: for EC50: Oryctolagus cuniculus
# Protocol: (§5) The experiment was conducted using female rabbits of 2 to 3.5 kg body weight.
# (§6) The animals were killed by draining the blood out under anesthetizing with pentobarbital (30 mg/kg, by intravenous injection) and smooth muscle of urethra and femoral artery were excised. Each of the excised samples was placed in a Magnus vessel filled with a modified Krebs solution (at 37°C; under mixed gas) and both smooth muscle of urethra and femoral artery were suspended with 1 g load.
# (§7) The drug to be tested was accumulated to contract the samples whereby the concentration/response curves were obtained wherefrom ED₅₀ (M) and pD₂ were calculated and the selectivity to urethra was determined.
# male rabbits [3] = assay: Action to intra urethral pressure and blood pressure, intravenous administration; format: in vivo
# Protocol: as §1, §2
# The drug to be tested was injected into the vein of ear every fifteen minutes and the maximum responses of the increasing action of intra urethral pressure tract and of the increasing action of blood pressure were measured at each dose.
# mice (ddY-strain, male) = assay: Acute toxicity, oral, mice; format: in vivo; conditions: observed two weeks
# Protocol: as §3, §4
# α₁-adrenoceptors = assay: α₁-Adrenoceptor binding assay with [³H]-prazosin, brain membrane; design: species or system Rats
# Protocol: Preparation of the receptor membrane was conducted as follows. Rats were decapitated, brain except cerebellum was excised, weighed, 40 times as much 50mM Tris-hydrochloric acid buffer (pH: 7.4) was added and the mixture was homogenized with a Polytron homogenizer and centrifuged for 20 minutes at 39,000 x g. Buffer solution was added to the precipitate and the resulting suspension was again centrifuged for 20 minutes. Then the precipitate was suspended in 40 volumes of Tris-hydrochloric acid buffer to prepare a receptor sample. The above operations were all conducted at 4°C.
# α ₁-Adrenoceptor binding assay was conducted as a radioactive ligand using a [³H]-prazosin.
# First, the receptor sample prepared as above was incubated in 50 mM Tris-hydrochloric acid buffer (pH 7.4) with [³H]-prazosin (0.2nM) at 25°C for 30 minutes. […] The mixture was allowed to stand at room temperature for not shorter than about 10 hours and the radioactivity was measured with a liquid scintillation counter to give a total binding.
# The same reaction as above was conducted in the presence of 1 µM of prazosin as well and the resulting radioactivity was defined as nonspecific binding. […]
# The inhibition activity of the test drug to the [³H]-prazosin binding was calculated by measuring the amount of the specific [ ³H] -prazosin binding in the presence of various concentrations of the drug. […]
# femoral artery = assay: Contraction of isolated femoral artery (Magnus vessel, cumulative concentration/response curves); format: cell-based, rabbits; conditions: Oryctolagus cuniculus
# Protocol: as §5, §6, §7
# [4] = 0.1 mg/kg i.d., 10 min after administration
# [5] = 0.1 mg/kg i.d., 20 min after administration
# [6] = 0.1 mg/kg i.d., 30 min after administration
# [7] = 0.1 mg/kg i.d., 60 min after administration
# [8] = 0.1 mg/kg i.d., 90 min after administration
# [9] = 0.1 mg/kg i.d., 120 min after administration
# [10] = 0.1 mg/kg i.d., 180 min after administration
# [11] = 0.3 mg/kg i.d., 10 min after administration
# [12] = 0.3 mg/kg i.d., 20 min after administration
# [13] = 0.3 mg/kg i.d., 30 min after administration
# [14] = 0.3 mg/kg i.d., 60 min after administration
# [15] = 0.3 mg/kg i.d., 90 min after administration
# [16] = 0.3 mg/kg i.d., 120 min after administration
# [17] = 0.3 mg/kg i.d., 180 min after administration
smiles,measurement,setting,value
"CS(=O)(=O)Nc1ccc(F)c([C@@H](O)CN)c1.Cl [(49B), (R)-(-)-3'-(2-Amino-1-hydroxyethyl)-4'-fluoromethanesulfonanilide hydrochloride]",Change(%) BP,male rabbits [1]; [4],2.7%
same,Change(%) BP,male rabbits [1]; [5],1.9%
same,Change(%) BP,male rabbits [1]; [6],3.3%
same,Change(%) BP,male rabbits [1]; [7],0.5%
same,Change(%) BP,male rabbits [1]; [8],-5.0%
same,Change(%) BP,male rabbits [1]; [9],-9.8%
same,Change(%) BP,male rabbits [1]; [10],-14.9%
same,Change(%) BP,male rabbits [1]; [11],2.8%
same,Change(%) BP,male rabbits [1]; [12],4.0%
same,Change(%) BP,male rabbits [1]; [13],4.7%
same,Change(%) BP,male rabbits [1]; [14],7.9** %
same,Change(%) BP,male rabbits [1]; [15],6.5** %
same,Change(%) BP,male rabbits [1]; [16],3.3* %
same,Change(%) BP,male rabbits [1]; [17],-10.0%
same,Change(%) IUP,male rabbits [1]; [4],10.5%
same,Change(%) IUP,male rabbits [1]; [5],11.0%
same,Change(%) IUP,male rabbits [1]; [6],20.7%
same,Change(%) IUP,male rabbits [1]; [7],29.4%
same,Change(%) IUP,male rabbits [1]; [8],28.9%
same,Change(%) IUP,male rabbits [1]; [9],30.3%
same,Change(%) IUP,male rabbits [1]; [10],24.1%
same,Change(%) IUP,male rabbits [1]; [11],21.5%
same,Change(%) IUP,male rabbits [1]; [12],44.2** %
same,Change(%) IUP,male rabbits [1]; [13],65.2* %
same,Change(%) IUP,male rabbits [1]; [14],84.1** %
same,Change(%) IUP,male rabbits [1]; [15],114.9* %
same,Change(%) IUP,male rabbits [1]; [16],101.5** %
same,Change(%) IUP,male rabbits [1]; [17],95.7** %
same,dose resulting in intraurethral pressure increasing action of the same grade as known amidephrine,"male rabbits [1]; administration to digestive organ, relative to amidephrine dose",about one-tenth
same,LD50 at 336 h,[2],> 1000 mg/kg
same,Rats Dead/ Total,"rats (SD strain, male); 500 mg/kg",0 / 6
same,Rats Dead/ Total,"rats (SD strain, male); 1000 mg/kg",0 / 6
same,Selectivity (B/A),smooth muscle of urethra; ED₅₀ femoral artery / ED₅₀ urethra,0.73
same,EC50,smooth muscle of urethra; read-out: ED₅₀ Urethra(A),4.41 µM
same,EC50,smooth muscle of urethra; read-out: pD₂ Urethra(A),4.37 µM
same,Selectivity (B/A),"male rabbits [3]; BP(ED30%↑) / IUP(ED150%↑), i.v.",5.3
same,ED (30%),"male rabbits [3]; Oryctolagus cuniculus, iv, read-out: BP(B) [BP(ED30%↑)]",0.048 mg/kg
same,Mice Dead/ Total,"mice (ddY-strain, male); 1000 mg/kg",0 / 4
same,Mice Dead/ Total,"mice (ddY-strain, male); 3000 mg/kg",0 / 4
same,"inhibiting action to binding of [³H]-prazosin, stronger than amidephrine",α₁-adrenoceptors; relative to amidephrine,about twice
same,"inhibiting action to binding of [³H]-prazosin, stronger than phenylephrine",α₁-adrenoceptors; relative to phenylephrine,about five times
same,EC50,femoral artery; read-out: ED₅₀ Femoral Artery(B),3.21 µM
same,EC50,femoral artery; read-out: pD₂ Femoral Artery(B),3.24 µM
